Tested on: recombinant NL4-3 virus (Renilla luciferase in nef, Gag P373S; NLRluc) in MT-2 cells
Assay: whole plant or invertebrate
Type: cell-based, HIV
Details: Renilla, NL43, luciferase activity in cells infected for 4-5 days with NLRluc recombinants, serial dilutions of inhibitor; class symbols (key in Table 1); read-out: EC50
How it was run: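 Read-out is Renilla luciferase, measured immediately after adding a premixed lysis/Dual Luciferase reagent. The reporter virus, NL4-3 with luciferase replacing part of nef plus Gag P373S, infected MT-2 cells for 4–5 days under serially diluted inhibitor.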

C=C(C)[C@@H]1CC[C@]2(NCCN3CCN(C(=O)C4(C)CC4)CC3)CC[C@]3(C)[C@H](CC[C@@H]4[C@@]5(C)CC=C(c6ccc(C(=O)O)cc6)C(C)(C)[C@@H]5CC[C@]43C)[C@@H]12 [Example B63, 4-((1R,3aS,5aR,5bR,7aR,11aS,11bR,13aR,13bR)-5a,5b,8,8,11a-pentamethyl-3a-((2-(4-(1-methylcyclopropanecarbonyl)piperazin-1-yl)ethyl)amino)-1-(prop-1-en-2-yl)-2,3,3a,4,5,5a,5b,6,7,7a,8,11,11a,11b,12,13,13a,13b-octadecahydro-1H-cyclopenta[a]chrysen-9-yl)benzoic acid]
EC50: < 100 nM

C=C(C)[C@@H]1CC[C@]2(NCCN3CCN(C(=O)C(C)C)CC3)CC[C@]3(C)[C@H](CC[C@@H]4[C@@]5(C)CC=C(c6ccc(C(=O)O)cc6)C(C)(C)[C@@H]5CC[C@]43C)[C@@H]12 [Example B64, 4-((1R,3aS,5aR,5bR,7aR,11aS,11bR,13aR,13bR)-3a-((2-(4-isobutyrylpiperazin-1-yl)ethyl)amino)-5a,5b,8,8,11a-pentamethyl-1-(prop-1-en-2-yl)-2,3,3a,4,5,5a,5b,6,7,7a,8,11,11a,11b,12,13,13a,13b-octadecahydro-1H-cyclopenta[a]chrysen-9-yl)benzoic acid]
EC50: < 100 nM

From US20140343000A1 (priority 2011, published 2014)
